Read-outs that look alike come from different tables or passages of the source.

Protocol: Mixtures of Duro-Tak 87-2287, 0.26% aluminum acetylacetonate crosslinker, 6% 17-d-Ngm, 1% EE, and various permeation enhancers were prepared. These mixtures were cured and cast as a 100 micron thick (wet) layer onto a 3M 1022 polyester backing and dried. Skin flux tests were carried out on the resulting assemblies according to the procedure described in col. […] HPLC was used to assay for 17-d-Ngm and EE. A Perkin Elmer HPLC system with Diedoarray detector set at 245 nm and 215 nm for 17-d-Ngm and EE, respectively. The mobile phase was 55% water, 45% acetonitrile at a flow rate of 1.0 ml/min. Retention time was 4.5 and 3.0 min. for 17-d-Ngm and EE, respectively.
It was mixed with 17-d-Ngm, EE, 7% PVP (K30 from BASF; dissolved in n-propanol) and various enhancers. These mixtures were cast as a 100 micron thick (wet) layer onto a 3M 1022 polyester backing and dried. Skin flux tests were carried out on the resulting assemblies as in Example 1.
PIB solutions were prepared by dissolving VISTANEX L100, Vistanex LM-MS-LC, and polybutene (Indopol H1900) in hexane. Suspensions of PVP-CLM, 17-d-Ngm, EE and various enhancers in ethanol/ethyl acetate were prepared. The PIB solution was added to the drug suspensions and the resulting mixtures were thoroughly blended. The mixtures were cast as a 10 mil thick (wet) layer onto release liners and dried at 70° C. for 40 min. Saranex 2015 backing was laminated to the subassembly. Skin flux studies were carried out on these assemblies as in Example 1.

`C#C[C@]1(O)CC[C@H]2[C@@H]3CCc4cc(O)ccc4[C@H]3CC[C@@]21C` [EE, ethinyl estradiol]: the Flux is, setting by setting: (Table 1: 2% TG + 4% OL, Duro-Tak 87-2287, 6% 17-d-Ngm, 1% EE) 0.061 ± 0.007 μg/cm^2 /hr; (Table 1: 2% TG + 10% ML, Duro-Tak 87-2287, 6% 17-d-Ngm, 1% EE) 0.076 ± 0.005 μg/cm^2 /hr; (Table 1: 2% TG + 10% PGML, Duro-Tak 87-2287, 6% 17-d-Ngm, 1% EE) 0.057 ± 0.009 μg/cm^2 /hr; (Table 1: 3% TG, Duro-Tak 87-2287, 6% 17-d-Ngm, 1% EE) 0.043 ± 0.011 μg/cm^2 /hr; (Table 1: 4% TG + 15% ML, Duro-Tak 87-2287, 6% 17-d-Ngm, 1% EE) 0.072 ± 0.002 μg/cm^2 /hr; (Table 2: silicone 4202, 7% PVP, 2% 17-d-Ngm, 0.5% EE, 2% TG + 2% ML) 0.18 ± 0.02 μg/cm^2 /hr. Further, the Flux is 0.074 ± 0.008 μg/cm^2 /hr (Table 2: silicone 4202, 7% PVP, 4% 17-d-Ngm, 0.5% EE, 2% ML); 0.069 ± 0.007 μg/cm^2 /hr (Table 2: silicone 4202, 7% PVP, 4% 17-d-Ngm, 0.5% EE, 5% ML + 1% TG); 0.043 ± 0.004 μg/cm^2 /hr (Table 2: silicone 4202, 7% PVP, 6% 17-d-Ngm, 0.5% EE, 5% ML + 1% TG); 0.062 ± 0.01 μg/cm^2 /hr (Table 2: silicone 4202, 7% PVP, 6% 17-d-Ngm, 0.5% EE, 14% (TC:PGML; 80:20)); 0.070 ± 0.01 μg/cm^2 /hr (Table 2: silicone 4202, 7% PVP, 6% 17-d-Ngm, 0.5% EE, 14% PGML); 0.078 ± 0.01 μg/cm^2 /hr (Table 2: silicone 4202, 14% PVP, 4% 17-d-Ngm, 0.5% EE, 4% TG + 5% ML). The Flux (Table 3: 0.1% EE, 1% 17-d-Ngm, 5% ML, 7% PVP-CLM, 86.9% silicone) is 0.05 ± 0.002 μg/cm^2 /hr; the Flux (Table 3: 0.1% EE, 1% 17-d-Ngm, 5% ML, 7% PVP-K30, 86.9% silicone) turned out to be 0.04 ± 0.008 μg/cm^2 /hr; the Flux (Table 4: PIB 1:5:4, 0.2% EE, 1.0% 17-d-Ngm, 20% PVP-CLM, 5% AMWAT) worked out at 0.05 ± 0.004 μg/cm^2 /hr; the Flux (Table 4: PIB 1:5:4, 0.2% EE, 2.0% 17-d-Ngm, 20% PVP-CLM, 3% oleic acid) is recorded as 0.06 ± 0.002 μg/cm^2 /hr; the Flux (Table 4: PIB 1:5:4, 0.2% EE, 2.0% 17-d-Ngm, 20% PVP-CLM, 5% lauramide diethanoiamine) stood at 0.06 ± 0.001 μg/cm^2 /hr; the Flux (Table 4: PIB 1:5:4, 0.2% EE, 2.0% 17-d-Ngm, 20% PVP-CLM, 10% PGML) is reported as 0.09 ± 0.001 μg/cm^2 /hr. Moreover, the Flux is given as 0.10 ± 0.001 μg/cm^2 /hr (Table 4: PIB 1:5:4, 0.2% EE, 2.0% 17-d-Ngm, 20% PVP-CLM, 10/0.5% PGML/oleic acid); 0.04 ± 0.002 μg/cm^2 /hr (Table 4: PIB 1:5:4, 0.2% EE, 3.0% 17-d-Ngm, 20% PVP-CLM, 3% oleic acid); 0.07 ± 0.001 μg/cm^2 /hr (Table 4: PIB 1:5:4, 0.2% EE, 3.0% 17-d-Ngm, 20% PVP-CLM, 10% PGML); 0.04 ± 0.001 μg/cm^2 /hr (Table 4: PIB 1:5:4, 0.2% EE, 4.0% 17-d-Ngm, 20% PVP-CLM, 5% lauric acid N,N-dimethyl amide); 0.10 ± 0.001 μg/cm^2 /hr (Table 4: PIB 1:5:4, 0.3% EE, 4.0% 17-d-Ngm, 20% PVP-CLM, 8% PGIS); 0.14 ± 0.001 μg/cm^2 /hr (Table 4: PIB 1:5:4, 0.3% EE, 4.0% 17-d-Ngm, 20% PVP-CLM, 8/3% PGML/oleic acid). The Flux reads like this: (Table 4: PIB 1:5:4, 0.3% EE, 4.0% 17-d-Ngm, 20% PVP-CLM, 15% dibutylsebacate) 0.06 ± 0.005 μg/cm^2 /hr; (Table 4: PIB 1:5:4, 0.3% EE, 4.0% 17-d-Ngm, 20% PVP-CLM, 15% ethyl oleate) 0.10 ± 0.001 μg/cm^2 /hr; (Table 4: PIB 1:5:4, 0.3% EE, 4.0% 17-d-Ngm, 20% PVP-CLM, 15% isopropyl palmitate) 0.07 ± 0.001 μg/cm^2 /hr; (Table 4: PIB 2:4:4, 0.3% EE, 4.0% 17-d-Ngm, 20% PVP-CLM, 20% propyl laurate) 0.06 ± 0.002 μg/cm^2 /hr; (Table 6: 70.8% PIB, 20% PVP-CLM, 0.2% EE, 2% 71-d-Ngm, 7% lauryl lactate, skin permeability Low) 0.03 μg/cm^2 /hr; (Table 6: 70.8% PIB, 20% PVP-CLM, 0.2% EE, 2% 71-d-Ngm, 7% lauryl lactate, skin permeability Medium) 0.08 μg/cm^2 /hr. The Flux (Table 6: 72.8% PIB, 20% PVP-CLM, 0.2 EE, 2% 17-d-Ngm, 5% myristyl lactate, skin permeability not given) worked out at 0.09 μg/cm^2 /hr; the Flux (Table 6: 72.85% PIB, 20% PVP-CLM, 0.15% EE, 5% lauryl lactate, skin permeability High) stood at 0.08 μg/cm^2 /hr; the Flux (Table 6: 72.85% PIB, 20% PVP-CLM, 0.15% EE, 5% lauryl lactate, skin permeability Low) stood at 0.02 μg/cm^2 /hr; the Flux (Table 6: 72.85% PIB, 20% PVP-CLM, 0.15% EE, 5% lauryl lactate, skin permeability Medium) was 0.05 μg/cm^2 /hr.
The compound `C[C@]12CC[C@@H]3c4ccc(O)cc4CC[C@H]3[C@@H]1CC[C@@H]2O` [17β-estradiol] displayed a Flux (Table 5: 2% 17β-estradiol, 2% 17-deacetynorgetimate, 20% PVP-CLM, 76% PIB adhesive) of 0.20 μg/cm^2 /hr.

For the origin of these results see US5876746A, “Transdermal patch and method for administering 17-deacetyl norgestimate alone or in combination with an estrogen” (Cygnus, Inc., priority 1996, dated 1999).
